Biological target: USP1/UAF1 (Homo sapiens (Human), UniProt O94782)
Assay: USP1/UAF1 activity, ubiquitin-rhodamine110-glycine (Ub-Rho) assay
Format: biochemical
Details: 0.1 nM USP1/UAF1, 100 nM Ub-Rho, 120 minutes; read-out: IC50 (nM), inhibitory effects on USP1/UAF1 activity
Experimental: USP1/UAF1 activity was determined by using ubiquitin-rhodamine110-glycine (Ub-Rho; Boston Biochem) assay. Enzymatic reactions were conducted in an assay buffer (50 mM Tris-HCl, pH 7.8, 0.5 mM EDTA, 100 mM NaCl, 1 mM DTT, 0.01 BSA, and 0.01% Tween-20) that contained 0.1 nM USP1/UAF1. Each individual compound was tested at ten concentrations in the range of 0.0005 to 10 μM. The plates were incubated for 15 min to attain equilibrium, and then the enzymatic reaction was initiated by dispensing 10 μL of Ub-Rho solution (100 nM final concentration). After treating 120 minutes with Ub-Rho solution, the rhodamine fluorescence was acquired using a 480 nm excitation/540 nm emission filter set by using Envision instrument. The inhibition rate of the compound to USP1/UAF1 enzyme activity was calculated according to the following formula.
IC50 value is obtained by fitting the s-shaped dose response curve equation by using XL Fit software. The curve equation is Y=100/(1+10^(log C−log IC50)). C is the compound concentration.

USP1/UAF1, sequence (O94782 whole entry): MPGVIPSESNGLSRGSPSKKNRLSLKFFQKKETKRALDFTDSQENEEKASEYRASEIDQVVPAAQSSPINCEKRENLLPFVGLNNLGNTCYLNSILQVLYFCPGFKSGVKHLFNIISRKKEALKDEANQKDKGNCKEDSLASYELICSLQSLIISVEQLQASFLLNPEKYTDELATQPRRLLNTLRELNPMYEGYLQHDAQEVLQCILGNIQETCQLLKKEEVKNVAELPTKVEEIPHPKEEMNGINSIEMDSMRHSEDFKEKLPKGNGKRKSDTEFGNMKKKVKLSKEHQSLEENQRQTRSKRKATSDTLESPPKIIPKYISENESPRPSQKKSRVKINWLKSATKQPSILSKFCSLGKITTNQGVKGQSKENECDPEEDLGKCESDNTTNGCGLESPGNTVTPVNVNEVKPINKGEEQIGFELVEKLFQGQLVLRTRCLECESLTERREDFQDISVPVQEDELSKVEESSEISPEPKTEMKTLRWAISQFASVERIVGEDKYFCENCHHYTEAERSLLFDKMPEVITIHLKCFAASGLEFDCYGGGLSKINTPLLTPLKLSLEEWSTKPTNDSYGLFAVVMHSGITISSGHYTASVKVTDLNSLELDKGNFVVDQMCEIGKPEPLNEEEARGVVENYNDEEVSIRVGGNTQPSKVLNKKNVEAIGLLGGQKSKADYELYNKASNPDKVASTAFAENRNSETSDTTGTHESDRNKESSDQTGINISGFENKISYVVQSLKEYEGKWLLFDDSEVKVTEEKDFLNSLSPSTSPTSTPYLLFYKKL
USP1/UAF1, sequence (Q8TAF3 whole entry partner): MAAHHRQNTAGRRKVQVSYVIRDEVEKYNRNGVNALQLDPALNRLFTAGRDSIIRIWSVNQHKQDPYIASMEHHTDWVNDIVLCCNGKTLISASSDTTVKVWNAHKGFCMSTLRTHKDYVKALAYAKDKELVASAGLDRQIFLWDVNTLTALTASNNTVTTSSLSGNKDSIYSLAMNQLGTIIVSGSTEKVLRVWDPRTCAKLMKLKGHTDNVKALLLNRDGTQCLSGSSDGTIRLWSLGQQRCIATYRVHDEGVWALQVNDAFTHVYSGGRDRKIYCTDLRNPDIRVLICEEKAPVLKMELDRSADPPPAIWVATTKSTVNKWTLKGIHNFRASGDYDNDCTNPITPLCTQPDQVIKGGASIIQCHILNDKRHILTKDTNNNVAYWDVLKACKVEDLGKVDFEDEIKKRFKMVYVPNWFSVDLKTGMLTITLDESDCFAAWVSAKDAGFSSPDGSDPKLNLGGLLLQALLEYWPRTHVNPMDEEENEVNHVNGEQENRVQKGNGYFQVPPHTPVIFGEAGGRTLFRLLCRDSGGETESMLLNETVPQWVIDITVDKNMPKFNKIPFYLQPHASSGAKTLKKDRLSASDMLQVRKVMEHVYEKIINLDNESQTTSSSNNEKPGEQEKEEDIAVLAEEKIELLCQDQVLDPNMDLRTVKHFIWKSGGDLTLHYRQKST

IC50 [nM]	SMILES
99.7	CCn1cc(C(F)(F)F)nc1-c1c(F)cc(Cc2cncc3nc(-c4c(OC)ncnc4C4CC4)nn23)cc1F [Example 45, 2-(4-cyclopropyl-6-methoxypyrimidin-5-yl)-5-(4-(1-ethyl-4-(trifluoromethyl)-1H-imidazol-2-yl)-3,5-difluorobenzyl)-[1,2,4]triazolo[1,5-a]pyrazine]
39.5	CCn1cc(C(F)(F)F)nc1-c1c(F)cc(Cc2cccn3nc(-c4c(OC)ncnc4C4CC4)nc23)cc1OC [Example 26, 2-(4-cyclopropyl-6-methoxypyrimidin-5-yl)-8-(4-(1-ethyl-4-(trifluoromethyl)-1H-imidazol-2-yl)-3-fluoro-5-methoxybenzyl)-[1,2,4]triazolo[1,5-a]pyridine]
18.8	CCn1cc(C(F)(F)F)nc1-c1c(F)cc(Cc2cccc3nc(-c4c(OC)ncnc4C4CC4)nn23)cc1OC [Example 39, 2-(4-cyclopropyl-6-methoxypyrimidin-5-yl)-5-(4-(1-ethyl-4-(trifluoromethyl)-1H-imidazol-2-yl)-3-fluoro-5-methoxybenzyl)-[1,2,4]triazolo[1,5-a]pyridine]
242	CCn1cc(C(F)(F)F)nc1-c1c(F)cc(Cc2cncn3nc(-c4c(OC)ncnc4C4CC4)nc23)cc1F [Example 34, 2-(4-cyclopropyl-6-methoxypyrimidin-5-yl)-8-(4-(1-ethyl-4-(trifluoromethyl)-1H-imidazol-2-yl)-3,5-difluorobenzyl)-[1,2,4]triazolo[1,5-c]pyrimidine]
57.5	CCn1cc(C(F)(F)F)nc1-c1c(F)cc(Cc2nccn3nc(-c4c(OC)ncnc4C4CC4)nc23)cc1F [Example 31, 2-(4-cyclopropyl-6-methoxypyrimidin-5-yl)-8-(4-(1-ethyl-4-(trifluoromethyl)-1H-imidazol-2-yl)-3,5-difluorobenzyl)-[1,2,4]triazolo[1,5-a]pyrazine]
5.44	COc1ncnc(C2CC2)c1-c1nc2cccc(Cc3ccc(-c4nc(C(F)(F)F)cn4C)c(F)c3)n2n1 [Example 38, 2-(4-cyclopropyl-6-methoxypyrimidin-5-yl)-5-(3-fluoro-4-(1-methyl-4-(trifluoromethyl)-1H-imidazol-2-yl)benzyl)-[1,2,4]triazolo[1,5-a]pyridine]

More lines, now with the values behind:

SMILES	IC50 [nM]
COc1ncnc(C2CC2)c1-c1nc2c(Cc3ccc(-c4nc(C(F)(F)F)cn4C)cc3)nccn2n1 [Example 18, 2-(4-cyclopropyl-6-methoxypyrimidin-5-yl)-8-(4-(1-methyl-4-(trifluoromethyl)-1H-imidazol-2-yl)benzyl)-[1,2,4]triazolo[1,5-a]pyrazine]	11.2
COc1ncnc(C2CC2)c1-c1nc2c(Cc3ccc(-c4nc(C(F)(F)F)cn4C4CC4)cc3)cncn2n1 [Example 32, 8-(4-(1-cyclopropyl-4-(trifluoromethyl)-1H-imidazol-2-yl)benzyl)-2-(4-cyclopropyl-6-methoxypyrimidin-5-yl)-[1,2,4]triazolo[1,5-c]pyrimidine]	111
COc1ncnc(C2CC2)c1-c1nc2c(Cc3ccc(-c4nc(C(F)(F)F)cn4C)c(F)c3)cccn2n1 [Example 25, 2-(4-cyclopropyl-6-methoxypyrimidin-5-yl)-8-(3-fluoro-4-(1-methyl-4-(trifluoromethyl)-1H-imidazol-2-yl)benzyl)-[1,2,4]triazolo[1,5-a]pyridine]	11.6
COc1ncnc(C2CC2)c1-c1nc2c(Cc3ccc(-c4nc(C(F)(F)F)cn4C)c(F)c3)cncn2n1 [Example 33, 2-(4-cyclopropyl-6-methoxypyrimidin-5-yl)-8-(3-fluoro-4-(1-methyl-4-(trifluoromethyl)-1H-imidazol-2-yl)benzyl)-[1,2,4]triazolo[1,5-c]pyrimidine]	94.5
COc1ncnc(C2CC2)c1-c1nc2cncc(Cc3ccc(-c4nc(C(F)(F)F)cn4C4CC4)cc3)n2n1 [Example 43, 5-(4-(1-cyclopropyl-4-(trifluoromethyl)-1H-imidazol-2-yl)benzyl)-2-(4-cyclopropyl-6-methoxypyrimidin-5-yl)-[1,2,4]triazolo[1,5-a]pyrazine]	38.9
COc1ncnc(C2CC2)c1-c1nc2c(Cc3ccc(-c4nc(C(F)(F)F)cn4C4CC4)cc3)nccn2n1 [Example 29, 8-(4-(1-cyclopropyl-4-(trifluoromethyl)-1H-imidazol-2-yl)benzyl)-2-(4-cyclopropyl-6-methoxypyrimidin-5-yl)-[1,2,4]triazolo[1,5-a]pyrazine]	34.6
COc1ncnc(C2CC2)c1-c1nc2c(Cc3ccc(-c4nc(C(F)(F)F)cn4C)c(F)c3)nccn2n1 [Example 30, 2-(4-cyclopropyl-6-methoxypyrimidin-5-yl)-8-(3-fluoro-4-(1-methyl-4-(trifluoromethyl)-1H-imidazol-2-yl)benzyl)-[1,2,4]triazolo[1,5-a]pyrazine]	41.4
COc1ncnc(C2CC2)c1-c1nc2cncc(Cc3ccc(-c4nc(C(F)(F)F)cn4C)c(F)c3)n2n1 [Example 44, 2-(4-cyclopropyl-6-methoxypyrimidin-5-yl)-5-(3-fluoro-4-(1-methyl-4-(trifluoromethyl)-1H-imidazol-2-yl)benzyl)-[1,2,4]triazolo[1,5-a]pyrazine]	78.3
COc1ncnc(C2CC2)c1-c1nc2c(Cc3ccc(-c4nc(C(F)(F)F)cn4C4CC4)cc3)cccn2n1 [Example 24, 8-(4-(1-cyclopropyl-4-(trifluoromethyl)-1H-imidazol-2-yl)benzyl)-2-(4-cyclopropyl-6-methoxypyrimidin-5-yl)-[1,2,4]triazolo[1,5-a]pyridine]	11.8
CCn1cc(C(F)(F)F)nc1-c1c(F)cc(Cc2nccc3nc(-c4c(OC)ncnc4C4CC4)nn23)cc1F [Example 42, 2-(4-cyclopropyl-6-methoxypyrimidin-5-yl)-5-(4-(1-ethyl-4-(trifluoromethyl)-1H-imidazol-2-yl)-3,5-difluorobenzyl)-[1,2,4]triazolo[1,5-c]pyrimidine]	732
COc1ncnc(C2CC2)c1-c1nc2ccnc(Cc3ccc(-c4nc(C(F)(F)F)cn4C)cc3)n2n1 [Example 21, 2-(4-cyclopropyl-6-methoxypyrimidin-5-yl)-5-(4-(1-methyl-4-(trifluoromethyl)-1H-imidazol-2-yl)benzyl)-[1,2,4]triazolo[1,5-c]pyrimidine]	16.1
COc1ncnc(C2CC2)c1-c1nc2cccc(Cc3ccc(-c4nc(C(F)(F)F)cn4C4CC4)cc3)n2n1 [Example 37, 5-(4-(1-cyclopropyl-4-(trifluoromethyl)-1H-imidazol-2-yl)benzyl)-2-(4-cyclopropyl-6-methoxypyrimidin-5-yl)-[1,2,4]triazolo[1,5-a]pyridine]	9.53

Source: patent US20240409538A1, “SUBSTITUTED TRIAZOLOHETEROARYL COMPOUNDS AS USP1 INHIBITORS AND THE USE THEREOF” (IMPACT THERAPEUTICS (SHANGHAI), INC., priority 2021, published 2024)
